One assay concerns barnacle cyprid larvae. As to the kind of experiment: Settling experiments with barnacle cyprid larvae (Example 1). The assay is classed as in vivo. The following applies: for Dead (%) / Free swimming (%) / Settled (%): counted after one week. As for the experimental part:
Barnacle cyprid larvae were incubated in filtered sea water with and without the tested substance.
(§1) Settling experiments were performed in order to evaluate the substances effect on settling rate of cyprid larvae. The barnacle cyprid larvae are reared in the laboratory. Approximately 20 cyprids were incubated in seawater in plastic hydrophobic Petri-dishes. Substances subjected for testing were added in different concentration and compared with controls. After one week the amount of settled, frees-swimming and dead larvae in the Petri dishes were counted.

Another assay has as its system algae. Particulars: target protein lacking in algae; reference (6); cited from earlier work.
A further assay deals with Barnacle. As to the kind of experiment: Cyprid settling rate assay, single compounds and combinations (Example 2). It is filed as in vivo. The following applies: single substance. As for the experimental part: as §1
(§2) Catemine 3 is combined with an effective anti-algae compound according to the invention, such as dichlofluanid (table 3), SeaNine™ (table 4), Irgarol™ (table 5) and Diuron™ (table 6). All the different brands are tested in combination with Catemine 3 for efficacy against both barnacles and algae with the two compounds together or separately. The assays that are be used are the cyprid settling rate assay and the algae germination test.

In a further assay the test system is Ulva. As to the kind of experiment: Algae spore germination test, Ulva. It is filed as in vivo. The following applies: single substance. As for the experimental part:
The efficacy of algicides is usually tested by a spore germination test. Algae are collected from the field and grown in the laboratory. […] The water with test compound is then removed and culture medium is added. The spores are left to germinate under fluorescent lamps (50 μMm-2s-1 (PAR)), 16 h light, 8 h darkness, for 7 days in a culture medium, which was changed once a day. […]

The subject of another assay is Enteromorpha. The assay can be described thus: Algae spore germination test, Enteromorpha. It is filed as in vivo. Particulars: single substance. Here is the method:
The efficacy of algicides is usually tested by a spore germination test. Algae are collected from the field and grown in the laboratory. After induced sporulation the spores are added to test vials, with the test compound dissolved in pasteurized deep sea water, where they are allowed to settle in darkness for a couple of hours (2-3 h) to give an even distribution of settled spores in the vials. The water with test compound is then removed and culture medium is added. The spores are left to germinate under fluorescent lamps (50 μMm-2s-1 (PAR)), 16 h light, 8 h darkness, for 7 days in a culture medium, which was changed once a day.
as §2

Take `Cc1cccc(C(C)c2c[nH]cn2)c1C` (racemic) [Catemine 1, (+/−)-4-[1-(2,3-dimethylphenyl)ethyl]-1H-imidazole]: the “Dead (%)” value with barnacle cyprid larvae (100 pM in seawater), in the assay with barnacle cyprid larvae (1 nM in seawater), with barnacle cyprid larvae (10 nM in seawater), with barnacle cyprid larvae (100 nM in seawater) and in the assay with barnacle cyprid larvae (1 μM in seawater) was 0% in each case. The “Free swimming (%)” value is given as 48% in the assay with barnacle cyprid larvae (100 pM in seawater); 98% with barnacle cyprid larvae (1 nM in seawater); 100% with barnacle cyprid larvae (10 nM in seawater); 100% in the assay with barnacle cyprid larvae (100 nM in seawater); 100% in the assay with barnacle cyprid larvae (1 μM in seawater). Moreover, the “Settled (%)” value in the assay with barnacle cyprid larvae (100 pM in seawater) turned out to be 52%; in the assay on barnacle cyprid larvae (1 nM in seawater), 2%; in the assay on barnacle cyprid larvae (10 nM in seawater) it was 0%; with barnacle cyprid larvae (100 nM in seawater), 0%; in the assay with barnacle cyprid larvae (1 μM in seawater), 0%. The “Effect on algal growth” value in the assay on algae is listed as “no effect of algal growth”.

Take `NC1=N[C@]2(CCc3cccc(Cl)c3C2)CO1` [Catemine 3, (S)-spiro[(1-oxa-2-amino-3-azacyclopent-2-ene)-4,29-(89-chloro-19,29,39,49 tetrahydronaphthalene)]]: the “Dead (%)” value with barnacle cyprid larvae (10 pM in seawater) worked out at 0%; with barnacle cyprid larvae (100 pM in seawater) it was 5%; in the assay on barnacle cyprid larvae (1 nM in seawater), 3%; in the assay on barnacle cyprid larvae (10 nM in seawater), 0%; in the assay on barnacle cyprid larvae (100 nM in seawater), 0%; in the assay on barnacle cyprid larvae (1 μM in seawater), 0%. Besides, the “Dead (%)” value with barnacle cyprid larvae (10 μM in seawater) was 2%; in the assay with barnacle cyprid larvae (100 μM in seawater), 100%. Moreover, the “Free swimming (%)” value in the assay with barnacle cyprid larvae (10 pM in seawater) worked out at 96%; with barnacle cyprid larvae (100 pM in seawater) it was 93%; in the assay with barnacle cyprid larvae (1 nM in seawater), 97%; in the assay with barnacle cyprid larvae (10 nM in seawater), 95%; with barnacle cyprid larvae (100 nM in seawater), 100%; in the assay on barnacle cyprid larvae (1 μM in seawater), 100%. Also, the entries for the “Free swimming (%)” value in the assay with barnacle cyprid larvae (10 μM in seawater) and in the assay on barnacle cyprid larvae (100 μM in seawater) were 98% and 0%, respectively. The “Settled (%)” value with barnacle cyprid larvae (10 pM in seawater) stood at 4%; in the assay with barnacle cyprid larvae (100 pM in seawater) it was 2%; in the assay on barnacle cyprid larvae (1 nM in seawater), 0%; in the assay on barnacle cyprid larvae (10 nM in seawater), 3%; in the assay on barnacle cyprid larvae (100 nM in seawater), 0%; with barnacle cyprid larvae (1 μM in seawater), 0%. In addition, the “Settled (%)” value in the assay on barnacle cyprid larvae (10 μM in seawater) and in the assay on barnacle cyprid larvae (100 μM in seawater) was 0% each time. In addition, in the assay on barnacle cyprid larvae (compared to Catemine 1), the “Decrease in concentration needed for settlement inhibition compared to Catemine 1” value is reported as 100-fold decrease in concentration needed for settlement inhibition. Besides, in the assay on barnacle cyprid larvae (comparison of Tables 1 and 2), the “Potency comparison of antisettling activity” value was “more potent than Catemine 1”. Also, the “Barnacle biofouling (% settlement)” value stood at 10% in the assay with Barnacle (0.1 nM), 0% with Barnacle (1 nM), 0% with Barnacle (10 nM) and 0% in the assay on Barnacle (100 nM). The “Ulva biofouling (% survival)” value in the assay with Ulva (0.1 nM), in the assay on Ulva (1 nM), in the assay on Ulva (10 nM) and in the assay with Ulva (100 nM) was 100% throughout. The “Enteromorpha biofouling (% survival)” value in the assay on Enteromorpha (0.1 nM), in the assay with Enteromorpha (1 nM), with Enteromorpha (10 nM) and with Enteromorpha (100 nM) was 100% in each case.

Take `CN(C)S(=O)(=O)N(SC(F)(Cl)Cl)c1ccccc1` [Dichlofluanid, N′-dimethyl-N-phenylsulphamide]: the “Barnacle biofouling (% settlement)” value in the assay on Barnacle (0.1 μg/ml) is reported as 100%; in the assay on Barnacle (1 μg/ml), 50%; with Barnacle (10 μg/ml), 25%; with Barnacle (100 μg/ml), 0%. The “Ulva biofouling (% survival)” value was determined as 100% in the assay on Ulva (0.1 μg/ml), 90% with Ulva (1 μg/ml), 10% with Ulva (10 μg/ml) and 0% in the assay on Ulva (100 μg/ml).

On to `CN(C)C(=O)Nc1ccc(Cl)c(Cl)c1` [Diuron, 3-(3,4-dichlorophenyl)1,1-dimethylurea], for which the “Barnacle biofouling (% settlement)” value in the assay on Barnacle (0.1 μM), in the assay with Barnacle (1 μM), with Barnacle (10 μM) and in the assay on Barnacle (100 μM) was 100% throughout. Further, the “Ulva biofouling (% survival)” value came to 100% in the assay with Ulva (0.1 μM), 90% in the assay on Ulva (1 μM), 50% in the assay on Ulva (10 μM) and 0% with Ulva (100 μM).

In the case of `CSc1nc(NC2CC2)nc(NC(C)(C)C)n1` [Irgarol, 2-methylthio-4-tert-butylamino-6-cyclopropylamino-s-triazine], the “Barnacle biofouling (% settlement)” value in the assay on Barnacle (0.1 nM), in the assay on Barnacle (1 nM), with Barnacle (10 nM) and with Barnacle (100 nM) was 100% in each case. The “Enteromorpha biofouling (% survival)” value is reported as 100% in the assay with Enteromorpha (0.1 nM), 100% with Enteromorpha (1 nM), 50% in the assay with Enteromorpha (10 nM) and 0% in the assay on Enteromorpha (100 nM).

As for `CCCCCCCCn1sc(Cl)c(Cl)c1=O` [SeaNine, 4,5-dichloro-2-n-octyl-3(2H)-isothiazolone], the “Barnacle biofouling (% settlement)” value in the assay on Barnacle (0.1 nM) was found to be 100%; in the assay with Barnacle (1 nM) it was 50%; in the assay with Barnacle (10 nM) it was 10%; with Barnacle (100 nM), 0%. The “Ulva biofouling (% survival)” value with Ulva (0.1 nM) worked out at 100%; in the assay on Ulva (1 nM), 50%; with Ulva (10 nM), 10%; with Ulva (100 nM) it was 0%.

(Values after US20060189686A1, “Use of a combination of substances to prevent biofouling organisms” (priority 2005, published 2006).)
